According to patent publication US20110319379A1, “Substituted Indazole Amides And Their Use As Glucokinase Activators” (priority 2009, published 2011):

These compounds were tested against T1, recombinant human glucokinase (beta cell isoform) (Homo sapiens, UniProt P35557) (assay: Assay 1: Evaluating Activator Potency and Maximum Activation at 5 mM Glucose). Settings: Assay 1; 5 mM glucose; NADH depletion at 340 nm, PK/LDH coupled; read-out: Glucokinase EC50.
T1 construct: Full-length glucokinase (beta cell isoform) was His-tagged at the N-terminus; His tag (N); made in house; host or cells: E. coli BL21(DE3), vector pBCGK
T1 sequence (P35557 1-465): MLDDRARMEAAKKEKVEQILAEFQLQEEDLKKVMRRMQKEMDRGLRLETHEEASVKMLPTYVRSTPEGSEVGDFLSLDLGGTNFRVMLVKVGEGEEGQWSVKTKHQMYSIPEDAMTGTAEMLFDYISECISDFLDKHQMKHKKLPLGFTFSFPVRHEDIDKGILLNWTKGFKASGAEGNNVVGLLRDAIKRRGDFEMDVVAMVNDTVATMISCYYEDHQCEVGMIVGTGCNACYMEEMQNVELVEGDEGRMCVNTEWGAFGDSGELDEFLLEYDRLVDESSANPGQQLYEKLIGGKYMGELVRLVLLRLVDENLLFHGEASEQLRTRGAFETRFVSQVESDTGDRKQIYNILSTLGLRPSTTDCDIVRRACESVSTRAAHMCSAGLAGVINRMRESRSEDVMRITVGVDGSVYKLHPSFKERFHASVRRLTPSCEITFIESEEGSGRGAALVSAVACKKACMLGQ
Format: biochemical
Description: Representative compounds of this invention were evaluated in biochemical assays (Assay 1 or Assay 2) to characterize their glucokinase activation properties.
The recombinant human glucokinase protein utilized in both assays was prepared and purified as described below.
BL21(DE3) cells (Invitrogen Corporation, Carlsbad, Calif.) containing pBCGK (C or N H is) vector were grown at 37° C. (in 2XYT) until the OD600 was between 0.6-1.0. Expression was induced by addition of isopropylthiogalactoside to a final concentration of 0.1-0.2 mM to the cells which were then incubated overnight at 23° C. The next day, cells were harvested via centrifugation at 5000 rpm for 15 minutes at 4° C. The cell pellet was stored at −80° C. for future purification.
Beta Cell Glucokinase His-Taq Purification Conditions: A Ni-NTA (Quigan, Germantown, Md.) column (15-50 mL) was used for separation. Two buffers were prepared, 1) a lysis/nickel equilibration and wash buffer and 2) a nickel elution buffer. The lysis/equilibration/wash buffer was prepared as such: 25 mM HEPES buffer at pH 7.5, 250 mM NaCl, 20 mM imidazole, and 14 mM β-mercaptoethanol as final concentrations. The elution buffer was prepared as such: 25 mM HEPES at pH 7.5, 250 mM NaCl, 400 mM imidazole, and 14 mM β-mercaptoethanol as final concentrations. The buffers were each filtered with a 0.22 μm filter prior to use. The cell pellet (1 L culture) was resuspended in 300 mL of the lysis/equilibration buffer. The cells were then lysed (3 times) with a Microfluidics Model 110Y microfluidizer (Microfluidics Corporation, Newton, Mass.). The slurry was centrifuged with a Beckman Coulter Model LE-80K ultracentrifuge (Beckman Coulter, Fullerton, Calif.) at 40,000 rpm for 45 minutes at 4° C. The supernatant was transferred to a chilled flask. A volume of 20 μl was saved for gel analysis. A Pharmacia AKTA (GMI, Inc., Ramsey, Minn.) purification system was used for separation. The prime lines were purged with lysis/equilibration buffer. The Ni-NTA column was equilibrated with 200 mL of the lysis/equilibration buffer at a flow rate of 5 mL/minute. The supernantant was loaded over the column at 4 mL/minute and the flow-through was collected in a flask. The unbound proteins were washed with lysis/equilibration buffer at a flow rate of 5 mL/minute until the ultraviolet reaches baseline. The protein was then eluted from the column with the imidazole elution buffer via imidazole gradient 20 mM to 400 mM over 320 mL. The column was then stripped of any additional protein with 80 mL of the elution buffer. The elution fractions were each 8 mL, for a total yield of 50 samples. Fractions were analyzed by sodium dodecyl sulfate polyacrylamide (SDS-PAGE) and the fractions containing protein of interest were pooled and concentrated to 10 mL using ultrafiltration cell with a 10,000 molecular weight cut-off (MWCO) Millipore membrane (Sigma-Aldrich, St. Louis, Mo.) under nitrogen gas (60 psi). Protein was further purified by size exclusion chromatography (SEC) using a […] (320 mL) (Amersham Pharmacia, Uppsala, Sweden). SEC was equilibrated with 450 mL sizing buffer containing 25 mM HEPES pH 7.0, 50 mM NaCl, and 5 mM dithiothreitol. Concentrated protein was then loaded over SEC and elution with 400 mL sizing buffer was performed overnight at 0.5 mL/minute. The elution fractions were 5 mL each. The fractions were analyzed by SDS-PAGE and protein containing fractions were pooled. Concentration was measured using Bradford Assay/BSA Standard. Purified protein was stored in small aliquots at −80° C.
Assay 1: Evaluating Activator Potency and Maximum Activation at 5 mM Glucose
Full-length glucokinase (beta cell isoform) was His-tagged at the N-terminus and purified by a Ni column followed by size exclusion chromatography as described above. Glucose was obtained from Calbiochem (San Diego, Calif.) and other reagents were purchased from Sigma-Aldrich (St. Louis, Mo.).

EC50 [nM] | Compound
1950 | CCS(=O)(=O)c1ccc(Oc2cc(C(=O)Nc3cnc(C)cn3)cc3nn(C)cc23)cc1 [Example 1T, 4-[4-(ethylsulfonyl)phenoxy]-2-methyl-N-(5-methylpyrazin-2-yl)-2H-indazole-6-carboxamide]
1890 | Cc1cnc(NC(=O)c2cc(Oc3ccc(S(=O)(=O)C4CC4)cc3)c3cn(C)nc3c2)cn1 [Example 1U, 4-[4-(cyclopropylsulfonyl)phenoxy]-2-methyl-N-(5-methylpyrazin-2-yl)-2H-indazole-6-carboxamide]
1500 | Cn1cc2c(Oc3ccc(S(=O)(=O)C4CC4)cc3)cc(C(=O)Nc3ccccn3)cc2n1 [Example 1V, 4-[4-(cyclopropylsulfonyl)phenoxy]-2-methyl-N-pyridin-2-yl-2H-indazole-6-carboxamide]
1480 | CCn1cc2c(Oc3ccc(S(=O)(=O)C4CC4)cc3)cc(C(=O)Nc3cnc(C)cn3)cc2n1 [Example 1W, 4-[4-(cyclopropylsulfonyl)phenoxy]-2-ethyl-N-(5-methylpyrazin-2-yl)-2H-indazole-6-carboxamide]
863 | CCn1cc2c(Oc3ccc(S(=O)(=O)C4CC4)cc3)cc(C(=O)Nc3ccccn3)cc2n1 [Example 1X, 4-[4-(cyclopropylsulfonyl)phenoxy]-2-ethyl-N-pyridin-2-yl-2H-indazole-6-carboxamide]
1080 | Cc1ccc(NC(=O)c2cc(Oc3cnc(C(=O)N(C)C)nc3)c3cn(C)nc3c2)nc1 [Example 1Z, 4-{[2-(dimethylcarbamoyl)pyrimidin-5-yl]oxy}-2-methyl-N-(5-methylpyridin-2-yl)-2H-indazole-6-carboxamide]

Same assay, conditions: Assay 1; 5 mM glucose; read-out: Glucokinase EC50

EC50 [nM] | Compound
3340 | Cc1cnc(NC(=O)c2cc(Oc3cnc(C(=O)N(C)C)nc3)c3cn(C)nc3c2)cn1 [Example 1Y, 4-{[2-(dimethylcarbamoyl)pyrimidin-5-yl]oxy}-2-methyl-N-(5-methylpyrazin-2-yl)-2H-indazole-6-carboxamide]
